Measurements published in US9867805B2, “Gelatinase inhibitors and prodrugs” (priority 2010, dated 2018).
Converted amounts (≈) assume the structure as drawn. Counter-ions that a name gives are not always drawn. Like-named read-outs stand apart in the source and are kept apart here.

Experiments:
[1] = Half-life in human blood at 37° C.; details: for half-life: human, blood
[2] = Half-life in human plasma at 37° C.; details: for half-life: human, plasma
human MMP-9 [3] = biological target: T1, human MMP-9 (Homo sapiens, UniProt P14780); test: biochemical; details: for koff: read-out: koff, MMP-9; for kon: read-out: kon, MMP-9
human MMP-2 [4] = biological target: T2, human MMP-2 (Homo sapiens, UniProt P08253); test: biochemical; details: for koff: read-out: koff, MMP-2; for kon: read-out: kon, MMP-2
T2 sequence (P08253 110-660): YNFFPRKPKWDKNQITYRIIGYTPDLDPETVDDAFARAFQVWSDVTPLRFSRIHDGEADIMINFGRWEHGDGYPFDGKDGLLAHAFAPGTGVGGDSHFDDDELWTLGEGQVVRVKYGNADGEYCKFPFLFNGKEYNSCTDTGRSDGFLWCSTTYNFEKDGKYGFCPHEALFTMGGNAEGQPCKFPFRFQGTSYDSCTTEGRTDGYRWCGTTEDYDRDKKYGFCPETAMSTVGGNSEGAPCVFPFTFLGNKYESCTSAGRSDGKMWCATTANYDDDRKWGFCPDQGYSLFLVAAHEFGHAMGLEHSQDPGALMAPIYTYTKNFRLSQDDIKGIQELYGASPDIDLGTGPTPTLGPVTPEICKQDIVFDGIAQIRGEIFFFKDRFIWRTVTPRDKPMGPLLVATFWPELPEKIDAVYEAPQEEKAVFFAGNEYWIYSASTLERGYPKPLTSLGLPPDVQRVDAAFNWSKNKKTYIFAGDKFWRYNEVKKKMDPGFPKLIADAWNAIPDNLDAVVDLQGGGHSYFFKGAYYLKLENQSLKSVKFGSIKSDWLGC

[5] = Half-life in rat liver microsomes
[6] = Half-life in mouse liver microsomes
[7] = test system: Ames II mixed strains and strain TA98; test: Ames mutagenicity assay (reverse mutations); details: with and without rat liver S9 metabolic activation; six concentrations up to 1 mg/mL
[8] = Half-life in human liver microsomes
human MMP-9 [9] = biological target: T1, human MMP-9; details: read-out: Ki for human MMP-9; background, earlier reports; cited from earlier work
human MMP-2 [10] = biological target: T2, human MMP-2; details: read-out: Ki for human MMP-2; background, earlier reports; cited from earlier work
other MMPs = details: background, earlier reports; cited from earlier work
[11] = rat; cited from earlier work
[12] = mice; cited from earlier work
[13] = cited from earlier work
MMP-14 [14] = biological target: T3, MMP-14 (Homo sapiens, UniProt P50281); details: read-out: Ki, MMP-14
human MMP-2 [15] = biological target: T2, human MMP-2; details: read-out: Ki, MMP-2
human MMP-9 [16] = biological target: T1, human MMP-9; details: read-out: Ki, MMP-9
MMP-1 = biological target: T4, MMP-1 (Homo sapiens, UniProt P03956); test: biochemical; details: read-out: inhibition of MMP-1
T4 sequence (P03956 100-469): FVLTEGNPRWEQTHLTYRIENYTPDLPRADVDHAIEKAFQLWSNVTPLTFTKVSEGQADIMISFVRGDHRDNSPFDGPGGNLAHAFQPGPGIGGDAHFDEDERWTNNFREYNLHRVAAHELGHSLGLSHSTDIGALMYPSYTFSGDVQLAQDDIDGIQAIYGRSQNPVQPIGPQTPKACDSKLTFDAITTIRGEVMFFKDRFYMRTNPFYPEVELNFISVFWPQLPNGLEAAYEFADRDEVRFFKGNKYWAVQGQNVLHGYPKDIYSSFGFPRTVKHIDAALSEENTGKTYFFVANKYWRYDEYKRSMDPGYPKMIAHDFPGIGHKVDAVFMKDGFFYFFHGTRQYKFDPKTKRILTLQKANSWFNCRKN

MMP-3 = MMP-3 (Homo sapiens, UniProt P08254); test: biochemical; details: read-out: inhibition of MMP-3
MMP-14 [17] = biological target: T3, MMP-14; test: biochemical
MMP-7 = biological target: T5, MMP-7 (Homo sapiens, UniProt P09237); details: read-out: Ki, MMP-7
T5 sequence (P09237 95-267): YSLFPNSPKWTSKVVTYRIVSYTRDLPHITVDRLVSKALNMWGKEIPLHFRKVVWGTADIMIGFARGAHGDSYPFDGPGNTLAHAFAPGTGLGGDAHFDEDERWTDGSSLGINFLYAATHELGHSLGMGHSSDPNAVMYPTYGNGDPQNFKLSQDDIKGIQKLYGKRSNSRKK

T1 sequence (P14780 107-707 limits assumed): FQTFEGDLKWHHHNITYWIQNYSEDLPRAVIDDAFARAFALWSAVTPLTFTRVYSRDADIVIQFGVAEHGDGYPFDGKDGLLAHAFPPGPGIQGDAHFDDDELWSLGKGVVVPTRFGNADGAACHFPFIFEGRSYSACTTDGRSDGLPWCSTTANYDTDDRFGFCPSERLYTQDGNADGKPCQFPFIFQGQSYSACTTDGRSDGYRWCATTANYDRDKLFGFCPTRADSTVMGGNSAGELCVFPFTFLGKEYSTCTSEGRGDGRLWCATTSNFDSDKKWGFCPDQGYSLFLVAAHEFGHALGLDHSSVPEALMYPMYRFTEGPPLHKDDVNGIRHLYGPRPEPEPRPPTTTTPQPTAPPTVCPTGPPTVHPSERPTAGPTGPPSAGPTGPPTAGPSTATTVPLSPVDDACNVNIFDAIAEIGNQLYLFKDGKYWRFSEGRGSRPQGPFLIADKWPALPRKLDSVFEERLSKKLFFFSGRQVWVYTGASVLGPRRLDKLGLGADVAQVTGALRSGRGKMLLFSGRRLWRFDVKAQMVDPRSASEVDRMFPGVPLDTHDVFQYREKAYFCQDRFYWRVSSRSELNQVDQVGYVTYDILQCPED
Chain of MMP-3 (P08254 100-477): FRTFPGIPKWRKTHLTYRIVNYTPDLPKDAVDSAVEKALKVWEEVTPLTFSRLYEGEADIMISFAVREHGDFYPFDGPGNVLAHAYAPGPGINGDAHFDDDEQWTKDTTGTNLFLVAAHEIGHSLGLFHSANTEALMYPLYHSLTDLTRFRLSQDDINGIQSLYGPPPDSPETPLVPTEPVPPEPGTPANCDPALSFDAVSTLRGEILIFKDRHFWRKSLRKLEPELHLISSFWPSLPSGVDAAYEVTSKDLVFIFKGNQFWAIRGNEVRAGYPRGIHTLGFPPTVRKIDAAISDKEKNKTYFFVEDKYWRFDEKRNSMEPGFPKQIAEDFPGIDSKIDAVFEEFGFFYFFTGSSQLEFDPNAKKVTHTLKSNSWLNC

Structure (SMILES): NC(CCC(=O)O)C(=O)Nc1ccc(Oc2ccc(S(=O)(=O)CC3CS3)cc2)cc1 (stereo not shown) [Compound 11c]
- half-life [1]: 27.9 ± 3.8 min
- half-life [2]: 32.8 ± 3.6 min
- Ki (human MMP-9 [3]): 5400 ± 300 nM
- koff (human MMP-9 [3]): 0.0012 ± 7e-05 s⁻¹
- kon (human MMP-9 [3]): 2300 ± 100 M⁻¹ s⁻¹
- koff (human MMP-2 [4]): 0.00018 ± 0.00016 s⁻¹
- kon (human MMP-2 [4]): 2500 ± 100 M⁻¹ s⁻¹
- solubility (Water solubility; water, Water Solubility): > 10000 µg/mL

Structure (SMILES): N=C(N)NCCCC(N)C(=O)Nc1ccc(Oc2ccc(S(=O)(=O)CC3CS3)cc2)cc1 (stereo not shown) [Compound 11d]
- half-life [1]: 25.4 ± 0.1 min
- half-life [2]: 29.5 ± 0.7 min
- half-life [5]: 59.3 ± 4.5 min
- half-life [6]: > 60 min
- mutagenic potential (Ames mutagenicity assay) [7]: negative
- solubility (Water solubility; water, Water Solubility): > 10000 µg/mL
- half-life [8]: > 60 min

Structure (SMILES): O=S(=O)(CC1CS1)c1ccc(Oc2ccc(O)cc2)cc1 (stereo not shown) [p-hydroxylated metabolite]
- Ki (human MMP-9 [9]): 160 ± 80 nM
- Ki (human MMP-2 [10]): 6 ± 3 nM

Structure (SMILES): N=C(N)NCCCC(N)C(=O)NC(CCCNC(=N)N)C(=O)Nc1ccc(Oc2ccc(S(=O)(=O)CC3CS3)cc2)cc1 (stereo not shown) [Compound 11e]
- half-life [1]: 5.9 ± 0.6 min
- half-life [2]: 11.8 ± 0.5 min
- solubility (Water solubility; water, Water Solubility): > 10000 µg/mL

Structure (SMILES): O=S(=O)(CC1CS1)c1ccc(Oc2ccccc2)cc1 (stereo not shown) [SB-3CT]
- Ki values for other MMPs (other MMPs): in the μM range at best
- treatment in model of subarachnoid hemorrhage [11]: effective
- treatment of viral-induced vascular leakage [12]: effective
- histological damage ([13]; administration at 6 hours after ischemia): potently blocked
- infarct volume ([13]; mouse transient ischemia): 30 % of control
- neurobehavioral scores ([13]; mouse transient ischemia): significantly improved
- solubility (Water solubility; water, aqueous solubility): ~2.45 µg/mL (≈ 0.008 mM)

Structure (SMILES): NCCCCC(N)C(=O)Nc1ccc(Oc2ccc(S(=O)(=O)CC3CS3)cc2)cc1 (stereo not shown) [Compound 11b]
- half-life [1]: 15.3 ± 1.9 min
- half-life [2]: 25.1 ± 5.2 min
- koff (human MMP-9 [3]): 0.00042 ± 7e-05 s⁻¹
- kon (human MMP-9 [3]): 270 ± 40 M⁻¹ s⁻¹
- koff (human MMP-2 [4]): 0.00021 ± 9e-05 s⁻¹
- kon (human MMP-2 [4]): 3400 ± 100 M⁻¹ s⁻¹
- solubility (Water solubility; water, Water Solubility): > 10000 µg/mL

Structure (SMILES): Cc1oc(=O)oc1COC(=O)Nc1ccc(Oc2ccc(S(=O)(=O)CC3CS3)cc2)cc1 (stereo not shown) [Compound 14]
- half-life [2]: 1.6 ± 0.4 min
- inhibition at 80 µM (human MMP-9 [3]; read-out: inhibition of MMP-9): 37%
- Ki (human MMP-2 [4]): 2400 ± 600 nM
- solubility (Water solubility; Water Solubility, in 100% water, solubility calculated using ε of MIK-G6 (p-N-acetyl SB-3CT)): 1.01 µg/mL (≈ 0.00212 mM)

Structure (SMILES): Nc1ccc(Oc2ccc(S(=O)(=O)CC3CS3)cc2)cc1O (stereo not shown) [Compound 22, 2-Amino-5-(4-((thiiran-2-ylmethyl)sulfonyl)phenoxy)phenol]
- Ki (MMP-14 [14]): 260 ± 70 nM
- Ki (human MMP-2 [15]): 78 ± 43 nM
- koff (human MMP-9 [3]): 0.00053 ± 0.0001 s⁻¹
- kon (human MMP-9 [3]): 1070 ± 120 M⁻¹ s⁻¹
- Ki (human MMP-9 [16]): 490 ± 110 nM
- inhibition at 300 µM (MMP-1): 11%
- inhibition at 300 µM (MMP-3): 54%
- koff (MMP-14 [17]; read-out: koff, MMP-14): 0.000702 ± 0.000161 s⁻¹
- kon (MMP-14 [17]; read-out: kon, MMP-14): 2690 ± 270 M⁻¹ s⁻¹
- koff (human MMP-2 [4]): 0.00014 ± 7e-05 s⁻¹
- kon (human MMP-2 [4]): 1700 ± 100 M⁻¹ s⁻¹
- Ki (MMP-7): 116000 ± 13000 nM

Structure (SMILES): Nc1ccc(Oc2ccc(S(=O)(=O)CC3CS3)cc2)cc1 (stereo not shown) [Compound 6, 4-[4-((Thiiran-2-yl)methylsulfonyl)phenoxy]benzamine.HCl salt]
- Half-life in liver microsomes, Rat [5]: 23.4 ± 0.7 min
- Half-life in liver microsomes, Mouse [6]: 27.3 ± 2.1 min
- Half-life in liver microsomes, Human [8]: >60 min

Structure (SMILES): NCC(=O)Nc1ccc(Oc2ccc(S(=O)(=O)CC3CS3)cc2)cc1 (stereo not shown) [Compound 11a]
- Half-life in human blood at 37° C. ([1]; human blood, 37° C.): 27.1 ± 2.5 min
- Half-life in human plasma at 37° C. ([2]; human plasma, 37° C.): 32.4 ± 2.7 min
- Ki (human MMP-2 [15]): 440 ± 50 nM
- koff (human MMP-9 [3]): 0.00065 ± 6e-05 s⁻¹
- kon (human MMP-9 [3]): 210 ± 40 M⁻¹ s⁻¹
- Ki (human MMP-9 [16]): 3100 ± 300 nM
- koff (human MMP-2 [4]): 0.00082 ± 9e-05 s⁻¹
- kon (human MMP-2 [4]): 1900 ± 600 M⁻¹ s⁻¹
